US20250361469A1, “Lymph Node on a Chip Device and Method” (New York University, priority 2024, published 2025)

Tests used:
[1] = system: DCs and T cells in LN chip; assay: OVA I model antigen initiating adaptive immune process in the LN chip; type: cell-based, human
DCs and FRCs = assay: CCL19 and CCL21 secretion by DCs and FRCs in paracortical area of LN chip under TNF-α (ELISA); type: cell-based, human; settings: inflammatory conditions affected by TNF-α

Row | Substance | DC maturation (imDCs to mDCs) ([1]; OVA I as model antigen in LN chip) | T cell activation ([1]; OVA I-induced mDCs vs imDCs) | T cell migration ([1]; OVA I-induced mDCs vs imDCs) | T cell proliferation ([1]; OVA I-induced mDCs vs imDCs) | secretion of CCL19 by DCs and FRCs (DCs and FRCs) | secretion of CCL21 by DCs and FRCs (DCs and FRCs)
1 | Ovalbimin [OVA I, model antigen (Sigma Aldrich) to initiate the adaptive immune process in the LN chip] | transformed into mDCs | enhanced | enhanced | enhanced |  | 
2 | TNF-α |  |  |  |  | increases | increases
